Measured values reported in patent US20180030001A1, “NEW TRIAZINE COMPOUNDS AS PHOTOSTABILIZING AGENTS” (3V Sigma S.P.A., priority 2016, published 2018).

Experiment: UVA:UVB ratio (radiation absorbed 320-400 nm vs 290-320 nm) of triazine compounds
Assay type: physicochemical
Settings: versus diethylhexyl butamido triazone and ethylhexyl triazone
Source text: Typically, the numerical UV-A/UV-B ratio of these compounds, defined as the ratio between the intensity of the radiation absorbed between 320 nm and 400 nm (UVA fraction) and that absorbed between 290 nm and 320 nm (UVB fraction), is greater than 0.20, and preferably greater than 0.30, whereas in the analogous triazine compounds with a 4-aminobenzoate or 4-aminobenzamide substituent different from the substituents described in Formula (IV), it is below about 0.14.
The UVA:UVB ratio is the ratio between the intensity of the radiation absorbed between 320 nm and 400 nm (UVA fraction) and that absorbed between 290 nm and 320 nm (UVB fraction).

Row | SMILES | UVA fraction relative to triazine analogues already known
1 | CCCCC(CC)COC(=O)c1ccc(NC(=O)c2ccc(Nc3nc(Nc4ccc(C(=O)NC(C)(C)C)cc4)nc(Nc4ccc(C(=O)OCC(CC)CCCC)cc4)n3)cc2)cc1 (stereo not drawn) [Compound of formula (VI)] | at least twice as high
2 | CCCCC(CC)COC(=O)c1ccc(NC(=O)c2ccc(Nc3nc(Nc4ccc(C(=O)Nc5ccc(C(=O)OCC(CC)CCCC)cc5)cc4)nc(Nc4ccc(C(=O)NC(C)(C)C)cc4)n3)cc2)cc1 (stereo not drawn) [Compound of formula (V)] | at least twice as high
3 | CCCCC(CC)COC(=O)c1ccc(NC(=O)c2ccc(Nc3nc(Nc4ccc(C(=O)OCC(CC)CCCC)cc4)nc(Nc4ccc(C(=O)OCC(CC)CCCC)cc4)n3)cc2)cc1 (stereo not drawn) [Compound of formula (VII)] | at least twice as high
